Source: patent publication US7910091B2, “System for trapping flying insects with attractant lures” (Woodstream Corporation, priority 2002, dated 2011)

Columns and labels:
mosquitoes [1] = test: Hawaii field test of lactic acid lures in Mosquito Magnet traps, total mosquito catch; format: in vivo, Culex quinquefasciatus Aedes albopictus, et al.; conditions: w/CO2, average caught in 48 hours
Description: (§1) […] Sample vials containing lactic acid impregnated frits were replaced every 2 days to ensure measurement uniformity. Measured release rates were approximately 4.0 mg/hr to 20 mg/hr. Controls were run with a Professional trap device lacking a lactic acid lure. The number of mosquitoes retained in the catch bag of the insect trapping devices was quantitated for test sample and control runs.
(§2) The comparison between lactic acid/CO2 and CO2 only used as lures in Mosquito Magnet® Professional (PRO) and Liberty traps are shown in Table 8.

A. albopictus [2] = test: Hawaii field test of lactic acid lures in Mosquito Magnet traps, A. albopictus catch; format: in vivo, Aedes albopictus; conditions: w/CO2, average caught in 48 hours
Description: as §1, §2

Culex pipiens pallens = test: China indoor test of Lurex; format: in vivo; conditions: CO2 without Lurex, Hefei basement, July 2002, catching in 24 hours
Excerpt: (§3) Mosquito types found in China include Culex pipiens pallens (majority), A. albopictus, Anopheles sinensis (minority), and […] subalbatus (minority). […] The daily mosquito catch depended mainly on the seasonal distribution of mosquitoes. […] Mosquito Magnet® Liberty traps were used in this example.

flying insects = test: Additional trap trials: lactic acid lures vs 1-octen-3-ol, Liberty trap with and without lure (FIG. 5); format: in vivo; conditions: for Insect capture counts (FIG. 5), in words: compared with CO2 only control / with lactic acid lures
Excerpt: Also surprising were the results of a trial running a Mosquito Magnet® Liberty trap (American Biophysics Corporation, East Greenwich, R.I., USA) with and without lactic acid lures. […] The addition of a lactic acid lure increased the capture count to about 4,700 flying insects, a surprising enhancement over the effectiveness of the device using CO2 alone. The trial test data are graphically depicted in FIG. 5.

A. Albopictus [3] = test: China test, Mosquito Magnet Liberty traps, catch of A. albopictus; format: in vivo; conditions: with CO2, Liberty trap, July 2002, Wuhu, catching in 12 hours
Excerpt: as §3

mosquitoes [4] = test: China test, Mosquito Magnet Liberty traps, total catch of mosquitoes; format: in vivo; conditions: Wuhu
Excerpt: as §3

[5] = cited from earlier work
[6] = @ 25° C.; cited from earlier work
[7] = Laboratory release rate test of lactic acid from impregnated frit cartridges in exhaust nozzle; format: physicochemical
Excerpt: Packaging of the sample L-(+)-lactic acid solution was selected with the goal of maximizing efficient dispersal of the lactic acid in the CO2 exhaust plume of the insect trapping device. […] Each frit was impregnated with was 3.5 g to 4.5 g of liquid lactic acid. Release rate testing was initially performed under laboratory conditions to assess the dispersal characteristics of L-(+)-lactic acid from impregnated frit cartridges. The sample vial with its cap removed was placed in a “basket-style” housing having numerous apertures/openings to permit release of lactic acid vapors from the impregnated frit. The housing of the supplemental insect attractant element was inserted into the exhaust nozzle of an insect trapping device. Lactic acid release was measured at two temperatures for comparison purposes. Exhaust plume temperature was set at 87° F. and then 97°°F., accordingly. […] At a constant temperature, here 87°°F., the release rate of lactic acid decreased with time. […] The useful life of a frit cartridge impregnated with liquid L-(+)-lactic acid may vary depending upon the amount of attractant initially loaded into the cartridge, and the environmental conditions to which the cartridge is subjected. The ultimate use- or release-time of a given cartridge can be tailored to meet the release rate needs of a particular environmental condition. […] Longer periods of release are anticipated for polymeric formulations of attractant compositions.

[8] = Acute toxicity LD50 oral rat; format: in vivo
Excerpt: A particularly beneficial aspect of using biochemical lures to trap mosquitoes is the large margin of safety associated therewith, particularly when compared with traditional chemical attractants.

[9] = cited from earlier work; remark: listed apart in the source
[10] = Liberty trap, February to March 2002
[11] = PRO trap, February to March 2002
[12] = PRO trap, January 2002, higher release rate
[13] = PRO trap, January 2002, listed as Liquid lactic acid

CC(O)C(=O)O (stereo not shown) [Solid lactic acid]
Total catch of mosquitoes (mosquitoes [1]; [10]): 2537
Total catch of mosquitoes (mosquitoes [1]; [11]): 243
Total catch of mosquitoes (mosquitoes [1]; PRO trap, January 2002): 136
Total catch of mosquitoes (mosquitoes [1]; [12]): 384
Catch of A. Albopictus (A. albopictus [2]; [10]): 12.7
Catch of A. Albopictus (A. albopictus [2]; [11]): 52
Catch of A. Albopictus (A. albopictus [2]; PRO trap, January 2002): 30
Catch of A. Albopictus (A. albopictus [2]; [12]): 116

O=C=O [CO2, carbon dioxide]
Total catch of mosquitoes (Culex pipiens pallens) (Culex pipiens pallens): 605

C=CC(O)CCCCC (stereo not shown) [1-octen-3-ol, reference compound]
Insect capture counts (FIG. 5), in words (flying insects): quite inefficient
Flying insects trapped (flying insects; one trial, over a two-day period, CO2 plume generating devices): less than 100
Catch of A. Albopictus (A. Albopictus [3]): 14
Sensitivity of mosquitoes in China to the chemical compared to CO2, in words (mosquitoes [4]; Hefei, Shanghai, Liberty traps): do not seem significantly sensitive
Total catch of mosquitoes (mosquitoes [4]; with CO2, Liberty trap, July 2002, China, catching in 12 hours): 196
LD50/oral/rat [5]: 340 mg/kg
Total catch of mosquitoes (mosquitoes [1]; [11]): 92
Catch of A. Albopictus (A. albopictus [2]; [11]): 13

CC(O)C(=O)O (stereo not drawn) [FCC 88, L(+)-lactic acid, 2-hydroxy-propionic acid]
Capture count of flying insects (flying insects; Liberty trap with CO2 plus lure, two-day period): about 4,700
Insect capture counts (FIG. 5), in words (flying insects): substantially improve insect capture counts
pH [6]: <2 @ 25 °C
Release rate ([7]; 87° F., time released 0-48 hrs, impregnated frit): 4.0 to 20 mg/h
Release rate ([7]; 87° F., time released 3-8 days, impregnated frit): 2.0 to 3.5 mg/h
Release rate ([7]; 97-100° F., 5-9th day, same sample tested before at 87° F.): 5.0 to 7.1 mg/h
Estimated time of use of cartridge ([7]; cartridge of 3.5 g liquid L-(+)-lactic acid, average release rate 5 mg/hr to 10 mg/hr): 2 to 4 weeks
Times less toxic than 1-octen-3-ol [8]: about 11 times
Total catch of mosquitoes (mosquitoes [1]; [13]): 313.5
LD50/dermal/rabbit [9]: 2000 mg/kg
Catch of A. Albopictus (A. albopictus [2]; [13]): 26
